# Data as given in patent publication US11078170B2 (Assembly Biosciences, Inc., priority 2017, dated 2021).
# System: HBV viral production from HepAD38 cells
# Experiment: Activity of test compounds on viral production from HepAD38 cells (viral load by qPCR of HBV core sequence in supernatant)
# Assay type: cell-based
# Conditions: Hepatitis B virus, 120 h, 5 days incubation, HBV DNA in supernatant by qPCR, top concentration 10 μM, read-out: Viral Load EC50 Activity range
# Summary of the method: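 HepAD38 cells, 50,000/well in tetracycline-free 2% FBS medium, treated 5 days at 37° C. with compound from 10 μM top concentration. HBV DNA in supernatant quantified by TaqMan qPCR of core sequence against DNA standards, relative to DMSO wells; CellTiter-Glo viability read in parallel. EC50/CC50 from four-parameter logistic fit.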
row,Structure (SMILES),EC50 [nM]
1,"CN1[C@@H](C(=O)Nc2ccc(F)c(Cl)c2)C[C@@H](c2ccc(F)cn2)NS1(=O)=O [HBV-CSU-032-ISO-II, Cis-N-(3-Chloro-4-fluorophenyl)-5-(5-fluoropyridin-2-yl)-2-methyl-1,2,6-thiadiazinane-3-carboxamide 1,1-dioxide]",> 5000
2,"CN1C(C(=O)Nc2ccc(F)c(Cl)c2)CC(c2cccnc2)NS1(=O)=O (stereo not drawn) [HBV-CSU-033, Cis-N-(3-Chloro-4-fluorophenyl)-2-methyl-5-(pyridin-3-yl)-1,2,6-thiadiazinane-3-carboxamide 1,1-dioxide]",< 1000
3,"C=CCN1C(C(=O)Nc2ccc(F)c(Cl)c2)CC(c2cccs2)NS1(=O)=O (stereo not drawn) [HBV-CSU-040, Cis-2-Allyl-N-(3-chloro-4-fluorophenyl)-5-(thiophen-2-yl)-1,2,6-thiadiazinane-3-carboxamide 1,1-dioxide]",< 1000
4,"O=C(Nc1ccc(F)c(Cl)c1)C1CC(c2cccs2)NS(=O)(=O)N1CCO (stereo not drawn) [HBV-CSU-041, Cis-N-(3-Chloro-4-fluorophenyl)-2-(2-hydroxyethyl)-5-(thiophen-2-yl)-1,2,6-thiadiazinane-3-carboxamide 1,1-dioxide]",> 5000
5,"CN(C)CCN1[C@H](c2cccs2)C[C@H](C(=O)Nc2ccc(F)c(Cl)c2)N(C)S1(=O)=O [HBV-CSU-043-ISO-II, Cis-N-(3-chloro-4-fluorophenyl)-6-(2-(dimethylamino)ethyl)-2-methyl-5-(thiophen-2-yl)-1,2,6-thiadiazinane-3-carboxamide 1,1-dioxide]",> 5000
6,"COCCN1[C@H](c2cccs2)C[C@H](C(=O)Nc2ccc(F)c(Cl)c2)NS1(=O)=O [HBV-CSU-044-ISO-I, Cis-N-(3-Chloro-4-fluorophenyl)-6-(2-methoxyethyl)-5-(thiophen-2-yl)-1,2,6-thiadiazinane-3-carboxamide 1,1-dioxide]",> 5000
7,"COCCN1[C@@H](c2cccs2)C[C@@H](C(=O)Nc2ccc(F)c(Cl)c2)NS1(=O)=O [HBV-CSU-044-ISO-II, Cis-N-(3-Chloro-4-fluorophenyl)-6-(2-methoxyethyl)-5-(thiophen-2-yl)-1,2,6-thiadiazinane-3-carboxamide 1,1-dioxide]",> 5000
8,"CN1[C@H](C(=O)Nc2ccc(F)c(C#N)c2)C[C@H](c2cccs2)NS1(=O)=O [HBV-CSU-045-ISO-I, Cis-N-(3-cyano-4-fluorophenyl)-2-methyl-5-(thiophen-2-yl)-1,2,6-thiadiazinane-3-carboxamide 1,1-dioxide]",< 1000
9,"CN1[C@H](C(=O)Nc2ccc(F)c(C(F)(F)F)c2)C[C@H](c2cccs2)NS1(=O)=O [HBV-CSU-046-ISO-I, Cis-N-(4-Fluoro-3-(trifluoromethyl)phenyl)-2-methyl-5-(thiophen-2-yl)-1,2,6-thiadiazinane-3-carboxamide 1,1-dioxide]",< 1000
10,"CN1[C@H](C(=O)Nc2cc(Cl)cc(Cl)c2)C[C@H](c2cccs2)NS1(=O)=O [HBV-CSU-047-ISO-I, Cis-N-(3,5-Dichlorophenyl)-2-methyl-5-(thiophen-2-yl)-1,2,6-thiadiazinane-3-carboxamide 1,1-dioxide]",< 1000
11,"CN1[C@H](C(=O)Nc2cc(Br)cc(Br)c2)C[C@H](c2cccs2)NS1(=O)=O [HBV-CSU-048-ISO-I, Cis-N-(3,5-Dibromophenyl)-2-methyl-5-(thiophen-2-yl)-1,2,6-thiadiazinane-3-carboxamide 1,1-dioxide]",< 1000
12,"CN1[C@H](C(=O)Nc2cc(F)c(F)c(Br)c2)C[C@H](c2cccs2)NS1(=O)=O [HBV-CSU-049-ISO-I, Cis-N-(3-Bromo-4,5-difluorophenyl)-2-methyl-5-(thiophen-2-yl)-1,2,6-thiadiazinane-3-carboxamide 1,1-dioxide]",< 1000
13,"C[C@H]1C[C@@H](C(=O)Nc2ccc(F)c(Cl)c2)N(C)S(=O)(=O)N1 [HBV-CSU-050-ISO-I, Cis-N-(3-chloro-4-fluorophenyl)-2,5-dimethyl-1,2,6-thiadiazinane-3-carboxamide 1,1-dioxide]",1000 to 5000
14,"C[C@@H]1C[C@H](C(=O)Nc2ccc(F)c(Cl)c2)N(C)S(=O)(=O)N1 [HBV-CSU-050-ISO-II, Cis-N-(3-chloro-4-fluorophenyl)-2,5-dimethyl-1,2,6-thiadiazinane-3-carboxamide 1,1-dioxide]",> 5000
15,"CN1[C@@H](C(=O)Nc2ccc(F)c(Cl)c2)C[C@@H](c2ccnn2C)NS1(=O)=O [HBV-CSU-054-ISO-I, Cis-N-(3-Chloro-4-fluorophenyl)-2-methyl-5-(1-methyl-1H-pyrazol-5-yl)-1,2,6-thiadiazinane-3-carboxamide 1,1-dioxide]",> 5000
16,"CN1[C@H](C(=O)Nc2ccc(F)c(Cl)c2)C[C@H](c2ccnn2C)NS1(=O)=O [HBV-CSU-054-ISO-II, Cis-N-(3-Chloro-4-fluorophenyl)-2-methyl-5-(1-methyl-1H-pyrazol-5-yl)-1,2,6-thiadiazinane-3-carboxamide 1,1-dioxide]",1000 to 5000

row,Structure (SMILES),EC50 [nM]
1,"CN1[C@H](C(=O)Nc2ccc(F)c(Cl)c2)C[C@H](c2ccon2)NS1(=O)=O [HBV-CSU-055-ISO-I, Cis-N-(3-chloro-4-fluorophenyl)-5-(isoxazol-3-yl)-2-methyl-1,2,6-thiadiazinane-3-carboxamide 1,1-dioxide]",< 1000
2,"CN1[C@@H](C(=O)Nc2ccc(F)c(Cl)c2)C[C@@H](c2ccon2)NS1(=O)=O [HBV-CSU-055-ISO-II, Cis-N-(3-chloro-4-fluorophenyl)-5-(isoxazol-3-yl)-2-methyl-1,2,6-thiadiazinane-3-carboxamide 1,1-dioxide]",> 5000
3,"CN1[C@H](C(=O)Nc2ccc(F)c(Cl)c2)C[C@H](c2ccsn2)NS1(=O)=O [HBV-CSU-056-ISO-I, Cis-N-(3-chloro-4-fluorophenyl)-5-(isothiazol-3-yl)-2-methyl-1,2,6-thiadiazinane-3-carboxamide 1,1-dioxide]",< 1000
4,"CN1C(C(=O)Nc2ccc(F)c(Cl)c2)CC(c2ccns2)NS1(=O)=O (stereo not drawn) [HBV-CSU-057, Cis-N-(3-chloro-4-fluorophenyl)-5-(isothiazol-5-yl)-2-methyl-1,2,6-thiadiazinane-3-carboxamide 1,1-dioxide]",< 1000
5,"COCCN1[C@@H](C(=O)Nc2ccc(F)c(Cl)c2)C[C@@H](c2nccs2)NS1(=O)=O [HBV-CSU-058-ISO-I, Cis-N-(3-chloro-4-fluorophenyl)-2-(2-methoxyethyl)-5-(thiazol-2-yl)-1,2,6-thiadiazinane-3-carboxamide 1,1-dioxide]",> 5000
6,"COCCN1[C@H](C(=O)Nc2ccc(F)c(Cl)c2)C[C@H](c2nccs2)NS1(=O)=O [HBV-CSU-058-ISO-II, Cis-N-(3-chloro-4-fluorophenyl)-2-(2-methoxyethyl)-5-(thiazol-2-yl)-1,2,6-thiadiazinane-3-carboxamide 1,1-dioxide]",< 1000
7,"COCCN1[C@@H](C(=O)Nc2ccc(F)c(Br)c2)C[C@@H](c2nccs2)NS1(=O)=O [HBV-CSU-059-ISO-I, Cis-N-(3-bromo-4-fluorophenyl)-2-(2-methoxyethyl)-5-(thiazol-2-yl)-1,2,6-thiadiazinane-3-carboxamide 1,1-dioxide]",> 5000
8,"COCCN1[C@H](C(=O)Nc2ccc(F)c(Br)c2)C[C@H](c2nccs2)NS1(=O)=O [HBV-CSU-059-ISO-II, Cis-N-(3-bromo-4-fluorophenyl)-2-(2-methoxyethyl)-5-(thiazol-2-yl)-1,2,6-thiadiazinane-3-carboxamide 1,1-dioxide]",< 1000
9,"CN1[C@@H](C(=O)Nc2ccc(F)c(Br)c2)C[C@@H](c2nccs2)NS1(=O)=O [HBV-CSU-060-ISO-I, Cis-N-(3-bromo-4-fluorophenyl)-2-methyl-5-(thiazol-2-yl)-1,2,6-thiadiazinane-3-carboxamide 1,1-dioxide]",> 5000
10,"CN1[C@H](C(=O)Nc2ccc(F)c(Br)c2)C[C@H](c2nccs2)NS1(=O)=O [HBV-CSU-060-ISO-II, Cis-N-(3-bromo-4-fluorophenyl)-2-methyl-5-(thiazol-2-yl)-1,2,6-thiadiazinane-3-carboxamide 1,1-dioxide]",< 1000
11,"COCCN1C(c2cccs2)CC(C(=O)Nc2ccc(F)c(Cl)c2)N(C)S1(=O)=O (stereo not drawn) [HBV-CSU-064, Cis-N-(3-Chloro-4-fluorophenyl)-6-(2-methoxyethyl)-2-methyl-5-(thiophen-2-yl)-1,2,6-thiadiazinane-3-carboxamide 1,1-dioxide]",> 5000
12,"CC(C)(C)OCCN1[C@H](C(=O)Nc2ccc(F)c(Cl)c2)C[C@H](c2nccs2)NS1(=O)=O [HBV-CSU-071-ISO-I, Cis-2-(2-(tert-Butoxy)ethyl)-N-(3-chloro-4-fluorophenyl)-5-(thiazol-2-yl)-1,2,6-thiadiazinane-3-carboxamide 1,1-dioxide]",< 1000
13,"O=C(Nc1ccc(F)c(Cl)c1)[C@H]1C[C@@H](c2nccs2)NS(=O)(=O)N1CCOC(F)(F)F [HBV-CSU-072-ISO-I, Cis-N-(3-Chloro-4-fluorophenyl)-5-(thiazol-2-yl)-2-(2-(trifluoromethoxy)ethyl)-1,2,6-thiadiazinane-3-carboxamide 1,1-dioxide]",> 5000
14,"O=C(Nc1ccc(F)c(Cl)c1)[C@@H]1C[C@H](c2nccs2)NS(=O)(=O)N1CCOC(F)(F)F [HBV-CSU-072-ISO-II, Cis-N-(3-Chloro-4-fluorophenyl)-5-(thiazol-2-yl)-2-(2-(trifluoromethoxy)ethyl)-1,2,6-thiadiazinane-3-carboxamide 1,1-dioxide]",< 1000
15,"COCCCN1[C@@H](C(=O)Nc2ccc(F)c(Cl)c2)C[C@@H](c2nccs2)NS1(=O)=O [HBV-CSU-077-ISO-I, Cis-N-(3-Chloro-4-fluorophenyl)-2-(3-methoxypropyl)-5-(thiazol-2-yl)-1,2,6-thiadiazinane-3-carboxamide 1,1-dioxide]",> 5000
16,"COCCCN1[C@H](C(=O)Nc2ccc(F)c(Cl)c2)C[C@H](c2nccs2)NS1(=O)=O [HBV-CSU-077-ISO-II, Cis-N-(3-Chloro-4-fluorophenyl)-2-(3-methoxypropyl)-5-(thiazol-2-yl)-1,2,6-thiadiazinane-3-carboxamide 1,1-dioxide]",< 1000
